Entries after “also recorded” stand apart in the source; their conditions may differ.
Tests used:
HSV-1 [1] = test: HSV-1 viral IE mRNA levels in infected HFF cells; type: cell-based, herpes simplex virus 1 (HSV-1)
From the text: The HFF cells were then infected with HSV-1 [2.0 PFU (plaque-forming units) per cell] for 1.5-hrs in the presence of inhibitor or DMSO. […] In the figures, the levels of HSV viral IE (ICP4, ICP22, and ICP27) and cellular control (TBP and SP1) mRNAs are expressed relative to cells treated with DMSO (vehicle). […] The HFF cells were then infected with HSV-1 (2.0, 5.0, and 10.0 PFU per cell) for 1.5-hrs in the presence of the inhibitor or DMSO. The levels of HSV viral IE (ICP0, ICP4, ICP22, and ICP27) and cellular controls (SP1 and TBP) mRNAs are expressed relative to cells treated with DMSO (vehicle). […] The levels of HSV viral IE (ICP0, ICP4, ICP22, and ICP27) and cellular control (SP1 and TBP) mRNAs are expressed relative to cells treated with DMSO (vehicle). […] HFF and Vero cells were then infected with HSV-1 (2.0 PFU per cell) for 1.5-hrs in the presence of inhibitor or DMSO. The levels of HSV viral IE (ICP0, ICP4, ICP22, and ICP27) and cellular control (SP1 and TBP) mRNAs are expressed relative to cells treated with DMSO (vehicle). […] HFF cells were treated with EZH1/2 catalytic inhibitor compound 4 (30 μM) or DMSO for 5-hrs. HFF cells were then mock or infected with HSV-1 (2.0 PFU per cell) for 1.5-hrs in the presence of inhibitor or DMSO. The levels of HSV viral IE (ICP4 and ICP27), control (SP1), and cellular innate interferon signaling (IFN-α, TNF-α, IL-8) mRNAs are expressed as absolute levels (absolute copies). […] HFF cells were treated with the EZH1/2 catalytic inhibitor compound 4 (5 μM) or DMSO for the indicated time as shown in FIG. 12. […] The levels of HSV viral IE (ICP0, ICP4, ICP22, and ICP27), control (TBP, ABAT, APOL3, UTX, and JMJD3), and cellular innate interferon signaling (IFN-α) mRNAs are expressed as ratios relative to cells treated with DMSO (vehicle). In this Example compound 4 was decreased to 5 μM and the duration of pretreatment was increased to 12, 24, and 48-hrs.

HSV-1 [2] = test: Spread of HSV infection in HFF cells (UL29 staining); type: cell-based, herpes simplex virus 1 (HSV-1); conditions: HSV-1 MOI 0.01 for 8.5-hrs, then treated for 12.5-hrs (30 μM)
Protocol: HFF cells were mock or infected with HSV-1 (MOI 0.01) for 8.5-hrs to allow one round of the viral replication program. The HFF cells were then treated with EZH1/2 inhibitor (compound 1 or compound 4 at 30 μM), viral DNA polymerase inhibitor (ACV at 100 μM), or JMJD3 inhibitor (ML324 at 50 μM) for an additional 12.5-hrs. Cells were paraformaldehyde fixed, permeabilized, and stained for the viral E gene UL29 and actin. The viral E protein UL29 was used as a marker for the spread of viral infection.
HFF cells were mock or infected with HSV-1 (MOI 0.01) for 8.5-hrs to allow one round of the viral replication program. HFF cells were then treated with EZH1/2 (compound 1, compound 4), viral DNA polymerase (ACV), or JMJD3 (ML324) inhibitors for additional 12.5-hrs. Cells were paraformaldehyde fixed, permeabilized, and stained for the viral E gene UL29 and actin (Phalloidin). The viral E protein UL29 was used as a marker for the spread of viral infection.

HSV-1 [3] = test: HSV-1 viral IE mRNA levels in infected Vero (IFN-β null, IRF3 deficient) cells; type: cell-based, herpes simplex virus 1 (HSV-1); conditions: 5-hrs pretreatment, HSV-1 2.0 PFU per cell
Protocol: HFF (wild-type) and Vero (IFN-β null, IRF3 deficient) cells were treated with the indicated concentration of EZH1/2 catalytic inhibitor (compound 1 or 4) or DMSO (vehicle) for 5-hrs. HFF and Vero cells were then infected with HSV-1 (2.0 PFU per cell) for 1.5-hrs in the presence of inhibitor or DMSO. The levels of HSV viral IE (ICP0, ICP4, ICP22, and ICP27) and cellular control (SP1 and TBP) mRNAs are expressed relative to cells treated with DMSO (vehicle).

HSV-1 [4] = test: Removal of inhibitors prior to HSV-1 infection of HFF cells (mRNA levels); type: cell-based, herpes simplex virus 1 (HSV-1); conditions: washed, then infected
Protocol: HFF cells were treated with inhibitors targeting the catalytic SET domain (compound 1, 35 μM: EZH2; compound 2, 15 μM: EZH2 and EZH1; compound 4, 30 μM: EZH2), EED-EZH2 and EED-EZH1 (compound 3, 30 μM), or DMSO (control) for 5-hrs. Cells were then washed with phosphate buffered saline (PBS) and replaced with media with no inhibitors for the indicated time in FIGS. 21-24 prior to infection with HSV-1 (2.0 PFU per cell) for 1.5-hrs in the absence of inhibitors.

neutrophil (Ly6G) = test: Neutrophil recruitment to the site of HSV infection in mouse eyes; type: in vivo, Balb/c mice; conditions: topical to the eyes, 30 μM twice daily, day 5
Protocol: The eyes of Balb/c mice were scarified and mock or infected with 2×10^5 pfu of HSV-1 (strain F) per eye. Beginning on day 0.5, the eyes of mice were treated either with EZH1/2 inhibitor (compound 4: 30 μM), acyclovir (ACV: 30 μM), or vehicle control twice daily. On day 5, the eyes were fixed in paraformaldehyde and tissue sections were co-stained with anti-HSV-1, anti-Ly6G (neutrophil), and DAPI.

Question: `CC[C@H](C)n1cc(C)c2c(C(=O)NCc3c(C)cc(C)[nH]c3=O)cc(-c3ccc(N4CCNCC4)nc3)cc21` [compound 4, GSK126] was tested. Which “effect of increasing the duration of pretreatment on HSV IE expression” value (HSV-1 [1]; 5 μM, pretreatment 12, 24, and 48-hrs) did it give?
Answer: Its value is “enhanced the suppression of HSV IE expression”.

Question: And the “cellular control SP1 mRNA” value (HSV-1 [1]; 30 μM, 5-hrs)?
Answer: The value was “no impact”.

Question: What about the “HSV viral IE expression (ICP4 and ICP27 mRNA)” value (HSV-1 [1]; 30 μM, 5-hrs, HSV-1 2.0 PFU per cell 1.5-hrs) of the same molecule?
Answer: The value was “represses HSV viral IE expression”.

Question: And the “spread of HSV infection to adjacent cells (UL29 marker)” value (HSV-1 [2])?
Answer: Its value is “block the spread of HSV to adjacent cells; also recorded: block the spread of HSV infection”.

Question: And the “antiviral activity (HSV IE mRNA) in Vero cells as compared to HFF (wild-type) cells” value (HSV-1 [3])?
Answer: The value was “lack of antiviral activity”.

Question: And the “HSV IE expression after removal of compound prior to infection” value (HSV-1 [4]; 5-hrs treatment (compound 1 35 μM, 2 15 μM, 3 30 μM, 4 30 μM))?
Answer: Its value is “recovery of HSV IE expression”.

Question: And the “IL6 stimulation after removal of compound prior to infection” value (HSV-1 [4]; 5-hrs treatment)?
Answer: The value was “decrease in IL6 stimulation”.

Question: What about the “neutrophil recruitment to the site of HSV infection” value (neutrophil (Ly6G)) of the same molecule?
Answer: Its value is “Recruitment/infiltration of neutrophils”.

Reference: patent publication US20180071284A1, “PREVENTING OR TREATING VIRAL INFECTION BY INHIBITION OF THE HISTONE METHYLTRANSFERASE EZH1 OR EZH2” (The United States of America, as represented by the …, priority 2015, published 2018)
